# US20220105157A1, “Compositions and Methods for Promoting Angiogenesis in the Eye” (The Regents of the University of California, priority 2019, published 2022)
# Residues, ends and D or L forms follow the SMILES beside them. *: point of attachment. Cbz = O=C(OCc1ccccc1)*; CH2F = FC*
# Columns and labels:
# [1] = tested on: bovine aortic endothelial (BAE) cells; test: BAE endothelial cell proliferation assay (alamar blue); format: cell-based; details: for rescue of the cell death phenotype induced by LIF: BAE cells, co-incubation with inhibitor; for reversal of LIF-induced growth inhibition in BAE cells: pre-incubation with inhibitor 1 hour, LIF 10 ng/ml, 6 days
# Protocol: (§1) The bovine endothelial proliferation assays were performed essentially as previously described (63, 64). BCE (1×10^3 cells/well) or BRE (5×10^2 cells/well) cells were seeded in 96-well plates in the culture medium (DMEM-low glucose supplemented with 10% BCS, 2 mM glutamine and antibiotics) plus testing materials with a total volume of 200 μl per well. BAE cells were plated in 96-well plates at a density of 2×10^3 cells in the culture medium (DMEM-low glucose supplemented with 1% BCS and antibiotics) plus testing material with a total volume of 200 μl per well. HRME cells were seeded at a density of 1×10^3 cells/well in gelatin-coated 96-well plates in assay medium (DMEM-low glucose supplemented with 20% FBS and antibiotics) plus testing materials to make a total volume 200 μl per well. For assays involving antibodies or small-molecule inhibitors, inhibitors or vehicle controls were first added and then test materials were added one hour later. After 6 days (unless otherwise specified), cells were incubated with alamar blue for 4 h. Fluorescence was measured at 530 nm excitation wavelength and 590 nm emission wavelength. Each experiment was carried out in duplicate/triplicate and repeated at least three times.
# [2] = tested on: phosphorylation of STAT3, ERK and AKT in BCE cells; test: Western blotting of LIF signaling in BCE cells; format: cell-based, bovine; details: pre-incubation 1 hour (baricitinib 2 μM, cobimetinib 150 nM, BEZ235 5 nM); for effect on AKT phosphorylation: with or without LIF 10 ng/ml 15 minutes
# Protocol: (§2) BCE and BAE cells were cultured in growth medium overnight. Growth medium was removed and then cells were washed twice with PBS. Recombinant human LIF was added to cells for 15 minutes, following 3-hour incubation in the following medium: DMEM-low glucose supplemented with 10% BCS, 2 mM glutamine and antibiotics for BCE cells, and DMEM-low glucose supplemented with 1% BCS and antibiotics for BAE cells. […] Cells were then lysed with RIPA lysis buffer (Life Technologies, CAT #89901) plus protease and phosphatase inhibitor cocktail (ThermoFisher Scientific CAT #78440). Protein concentrations in cell lysates were measured with the BCA assay (ThermoFisher Scientific CAT #23227). Equal amount of proteins were subjected to electrophoresis in NuPAGE 4-12% Bis-Tris gels (ThermoFisher Scientific, CAT #NW04125BOX) and then transferred onto PVDF membranes. Membranes were blocked with 5% non-fat milk in TBST at room temperature for 1 hour, incubated with primary antibodies indicated below in TBST containing 0.5% non-fat milk at 4° C. overnight then with secondary HRP-conjugated antibodies (1:2000, GE Healthcare) at room temperature for 1 h. Signals were developed with SuperSignal™ West Pico PLUS Chemiluminescent Substrate (ThermoFisher Scientific). Primary antibodies used: anti-phospho-STAT3 (Cell Signaling, CAT #9131, 1:3000), anti-STAT3 (Cell Signaling, CAT #4904, 1:3000), anti-phospho-ERK (Cell Signaling, CAT #4376, 1:5000), anti-ERK (Cell Signaling, CAT #4695, 1:5000), anti-phospho-AKT Ser473 (Cell Signaling, CAT #4060, 1:2000), anti-AKT (Cell Signaling, CAT #4691, 1:2000) and HRP-conjugated anti-beta-actin (Sigma, CAT #AC-15, 1; 10000).
# [3] = tested on: bovine choroidal endothelial (BCE) cells; test: BCE endothelial cell proliferation assay (alamar blue); format: cell-based; set-up: key to BCE cell growth normalized to the vehicle control group: ns, not statistically significant; details: for effect on LIF-induced BCE cell growth: pre-incubation with inhibitor 1 hour, LIF 10 ng/ml, 6 days; for BCE cell growth normalized to the vehicle control group: day 6, n = 3
# Protocol: as §1
# [4] = tested on: phosphorylation of STAT3, ERK and AKT in BAE cells; test: Western blotting of LIF signaling in BAE cells; format: cell-based, bovine; details: pretreatment 1 hour (baricitinib 2 μM, cobimetinib 150 nM, BEZ235 5 nM), LIF 10 ng/ml 15 minutes
# Protocol: as §2
# [5] = tested on: retinal vasculature of mouse eyes; test: Intravitreal injection of recombinant proteins in mouse eyes, retinal vessel density; format: in vivo; details: after exposure to 95° C. for 2 hours
# Protocol: Male C57BL/6J mice (6-8 week and P5) were anesthetized with ketamine/Xylazine cocktail. The indicated amounts of recombinant LIF (Sigma, CAT #SRP9001) in 1 μl of PBS and PBS vehicle control were injected intravitreally with a 33-gauge Hamilton syringe. Seven (for adult mice) or 3 (for neonatal mice) days after injection, animals were euthanized, eyes were then enucleated and fixed in 4% paraformaldehyde (PFA) for 15 min. Choroid-sclera complexes and retinas were separated and anti-CD31 immunofluorescence (IF) or lectin labeling was performed to evidence the vasculature by whole mount staining of both retina and choroidal tissues or flat-mounts of retina. For CD31 IF, rat anti-mouse antibody (BD Biosciences, CAT #550274) was diluted 1:100 and incubated overnight at 4° C. After 4-hour incubation with the Alexa Fluor-488-conjugated anti-rat antibody (Life Technologies, CAT #A11006), whole mounts were imaged via the 488 nm channel using Keyence Microscope BZ-X710 (Keyence Corporation, Osaka, Japan) or A1R Confocal STORM super-resolution system (Nikon). For lectin staining, Dylight-488-labeled lectin (Vector Laboratories, CAT #DL-1174) was diluted at 1:200 and images were obtained using A1R Confocal STORM super-resolution system (Nikon). For Quantification of vascular density in choroids and retina was carried out by Image J. Student's t test was used for statistical analysis. Each experiment was repeated three times with similar results each time, and each treatment group consists of 4 or 5 individual samples in every experiment. All animal experimental procedures were approved by the Institutional Animal Care and Use Committee (IACUC) of the University of California San Diego and conducted in accordance with the guidelines of the Animal Care Program (ACP).
# Optical coherence tomography angiography (OCTA) imaging of the retina of adult mice was performed 7 days after LIF injection, using a 1300 nm optical coherence tomography (OCT) system developed by Dr. R. K. Wang's group at University of Washington Seattle, in agreement with previously described methodology (66). Briefly, the swept laser operated in single longitude mode with a 90 nm bandwidth centered at 1300 nm and 200 kHz A-line rate was used to scan mouse retina and to generate images of vasculature in a field of view of 1.5×1.5 mm^2. 2500 B-frames were captured at 500 cross-sections with five repeated B-frames at each cross-section. To quantify the retinal vascular density, retinal and choroidal layers in 3D structure OCT scans were separated by the hyper-reflecting retinal pigment epithelium (RPE). Then the en face maximum intensity projection was generated. The vessel density was then determined by calculating the percentages of vessel-covered area in total area of view using the ImageJ software.
compound,measurement,setting,value
"Cl.Nc1cccc2c(=O)[nH]ccc12 [5-AIQ, 5-AIQ hydrochloride]",rescue of the cell death phenotype induced by LIF,[1],not able rescue
"Cn1c(=O)n(-c2ccc(C(C)(C)C#N)cc2)c2c3cc(-c4cnc5ccccc5c4)ccc3ncc21 [BEZ235, reference compound]",effect on AKT phosphorylation,[2],only moderate effects
same,effect on LIF-induced BCE cell growth,[3],no effect
same,effect on LIF-induced phosphorylation of AKT,[4],effectively repressed
"CCCNC(=O)[C@H]1O[C@@H]1C(=O)N[C@H](C(=O)N1CCC[C@H]1C(=O)O)[C@@H](C)CC [CA074, CA-074]",suppression of LIF-induced effects in BAE cells,"[1]; even at the highest dose tested, 50 μM",not able to suppress
"CCCNC(=O)[C@H]1O[C@@H]1C(=O)N[C@H](C(=O)N1CCC[C@H]1C(=O)OC)[C@@H](C)CC [CA074me, CA-074 me]",reversal of LIF-induced growth inhibition in BAE cells,[1],alleviated LIF-induced growth inhibition
O=C(NCc1ccccc1)[C@H](Cc1ccccc1)NC(=O)[C@@H]1O[C@@H]1C(=O)NCCc1ccc(O)cc1 [CAA0225],reversal of LIF-induced growth inhibition in BAE cells,[1],repressed LIF-induced growth inhibition in BAE cells although by less extent
"COC(=O)C[C@H](NC(=O)[C@@H](NC(=O)c1ccc2ccccc2n1)C(C)C)C(=O)COc1c(F)cccc1F [Q-VD-OPH, Q-VD(OMe)-OPh]",rescue of the cell death phenotype induced by LIF,[1],not able rescue
"COC(=O)CC[C@H](NC(=O)[C@H](CC(=O)OC)NC(=O)OCc1ccccc1)C(=O)N[C@H](C(=O)N[C@@H](CC(=O)OC)C(=O)CF)C(C)C [Z-DEVD-fmk, Z-DEVD-FMK]",rescue of the cell death phenotype induced by LIF,[1],not able rescue
"COC(=O)C[C@H](NC(=O)[C@H](C)NC(=O)[C@@H](NC(=O)OCc1ccccc1)C(C)C)C(=O)CF [Z-VAD-fmk, Z-VAD-FMK] (Cbz-Val-Ala-Asp(OMe)-CH2F)",rescue of the cell death phenotype induced by LIF,[1],not able rescue
O=C(c1ccc(F)c(F)c1Nc1ccc(I)cc1F)N1CC(O)([C@@H]2CCCCN2)C1 [cobimetinib],effect on LIF-induced phosphorylation of ERK MAPK,[2]; then LIF 10 ng/ml 15 minutes,blocked
same,effect on LIF-induced phosphorylation of STAT3,[2]; then LIF 10 ng/ml 15 minutes,no effects
same,effect on AKT phosphorylation,[2],no effects
same,effect on LIF-induced BCE cell growth,[3],minimal effects
same,effect on LIF-induced phosphorylation of ERK,[4],effectively repressed
"IGFBP3: recombinant IGFBP3, a secreted protein previously shown to be an angiogenesis inhibitor",BAE cell growth,[1],had no effects
IL-8: recombinant human IL-8,stimulation of BCE cell growth (mitogenic activity),[3],fail to stimulate BCE cell growth
same,BCE cell growth normalized to the vehicle control group,[3]; 1 ng/ml,ns
same,BCE cell growth normalized to the vehicle control group,[3]; 3 ng/ml,ns
same,BCE cell growth normalized to the vehicle control group,[3]; 10 ng/ml,ns
same,BCE cell growth normalized to the vehicle control group,[3]; 30 ng/ml,ns
same,BCE cell growth normalized to the vehicle control group,[3]; 100 ng/ml,ns
same,BCE cell growth normalized to the vehicle control group,[3]; 300 ng/ml,ns
PDGF-AA: recombinant human PDGF-AA,stimulation of BCE cell growth (mitogenic activity),[3],fail to stimulate BCE cell growth
same,BCE cell growth normalized to the vehicle control group,[3]; 1 ng/ml,ns
same,BCE cell growth normalized to the vehicle control group,[3]; 3 ng/ml,ns
same,BCE cell growth normalized to the vehicle control group,[3]; 10 ng/ml,ns
same,BCE cell growth normalized to the vehicle control group,[3]; 30 ng/ml,ns
same,BCE cell growth normalized to the vehicle control group,[3]; 100 ng/ml,ns
same,BCE cell growth normalized to the vehicle control group,[3]; 300 ng/ml,ns
heat-inactivated LIF: recombinant LIF heat-inactivated by exposure to 95° C. for 2 hours,ability to promote mitogenesis in vitro,[3]; after exposure to 95° C. for 2 hours,abolished
same,ability to promote angiogenesis in vivo,[5],abolished
